Legend:
[1] = system: L1210; experiment: Cytotoxicity against mouse L1210 cells after 48 hrs by microculture tetrazolium assay; assay type: functional, cell-based; settings: L1210, 48 h
[2] = Cytotoxicity against human KB3-1 cells after 96 hrs by microculture tetrazolium assay; assay type: functional, cell-based; settings: KB 3-1, 96 h
[3] = system: L1210; experiment: Cell cycle arrest in mouse L1210 cells assessed as accumulation at G2M phase at 10 uM after 21 hrs using propidium iodide staining by flow cytometry; assay type: functional
[4] = system: L1210; experiment: Cell cycle arrest in mouse L1210 cells assessed as accumulation at G1 phase at 10 uM after 21 hrs using propidium iodide staining by flow cytometry; assay type: functional
[5] = system: L1210; experiment: Cell cycle arrest in mouse L1210 cells assessed as accumulation at S phase at 10 uM after 21 hrs using propidium iodide staining by flow cytometry; assay type: functional

Compound | IC50 [1] [µM] | IC50 [2] [µM] | Activity [3] [%] | Activity [4] [%] | Activity [5] [%]
CC(C)(C)C(=O)OCC1=C[C@@H](OC(=O)C(C)(C)C)C2=CC(=O)O[C@@H](O[C@@H]3O[C@H](COC(=O)C(C)(C)C)[C@@H](OC(=O)C(C)(C)C)[C@H](OC(=O)C(C)(C)C)[C@H]3OC(=O)C(C)(C)C)[C@H]12 | 4 | 0.42 | 45 | 36 | 19
CC1=C[C@@H](OC(=O)C(C)(C)C)C2=CC(=O)O[C@@H](O[C@@H]3O[C@H](COC(=O)C(C)(C)C)[C@@H](OC(=O)C(C)(C)C)[C@H](OC(=O)C(C)(C)C)[C@H]3OC(=O)C(C)(C)C)[C@H]12 | 24.8 | 7.2 |  |  | 
